The values that follow come from US10464967B2, “Non-hormonal steroid modulators of NF-κβ for treatment of disease” (Reveragen Biopharma, Inc., priority 2011, dated 2019).

One experiment relates to mdx mice. As to the kind of experiment: In vivo mdx mouse model of dystrophy. On the procedure: Separate groups (n=12-14) of mdx mice were treated with prednisolone (5 mg/kg/day; per oral in feed), Example 1 (20 and 40 mg/kg/day; per oral in feed) and Example 2 (20 and 40 mg/kg/day; per oral in feed) for 3 months. All mice underwent 30 min biweekly treadmill exercise during the treatment duration to unmask the mild disease phenotype of mdx mouse model.
Motor coordination and strength were assessed using Rota-rod (Ugo Basile, VA, Italy) testing. Briefly, mice were trained on the rota-rod for two days before collecting data. Each acclimatization session consisted of four training sessions, 2 per day and each session lasting 120 seconds at a speed of 5 rpm). Each trial consisted of placing the mice on the rod at 10 rpm for 60 seconds (stabilizing period) followed by an acceleration from 10 rpm to 40 rpm within the first 25 seconds until the animal fell from the rod or until 180 seconds are reached. If the animals fell during the stabilizing period, they were placed back on the rod to complete the session. The total testing time was 240 seconds (60 seconds stabilization time and 180 seconds test time). Each trial was performed twice a day (2 hour interval between sessions) for 3 consecutive days. The latency to fall (seconds) was recorded and all six scores were averaged per mouse. The average data was expressed as latency to fall (in seconds) for each group mice at 3 age groups.
The distal tendon of the extensor digitorum longus (EDL) muscle was tied securely to the lever arm of a servomotor/force transducer (model 305B, Aurora Scientific, Richmond Hill, ON, Canada) and the proximal tendon to a tissue clamp. Muscles were stimulated between two platinum electrodes. […] With the muscle held at Lo using stimulation frequencies of 30, 50, 80, 100, 120 and 150 Hz, the maximum isometric tetanic force (Po) developed during a 300 ms train of stimulation pulses was recorded for the EDL muscle. The muscle length was then measured with calipers and after removal of the muscle from the bath the mass of the muscle was determined. For each muscle, the optimum fiber length (Lf) was calculated by multiplying Lo by a previously determined Lf/Lo ratio of 0.45. Total muscle fiber cross-sectional area was determined by dividing the wet mass by the product of Lf and the density of mammalian skeletal muscle (1.06 mg/mm^3). Maximum isometric specific force (sPo) was determined by dividing Po by the total muscle fiber cross-sectional area.

For another experiment, the system named is mice. As to the kind of experiment: OVA-induced mouse model of acute allergic asthma. The experiment is classed as in vivo. The following applies: 20 mg/kg oral on days 6-11. On the procedure:
The model used in the current studies has been previously described (Gwinn et al. 2006; Balsley et al. 2010). Briefly, mice were primed via intraperitoneal (i.p) injection with 50 μg of OVA in PBS with 100 μl of alum (200 μl total volume per mouse) on day 0. OVA-primed mice were challenged under light anesthesia (isoflurane) by intranasal delivery of 100 μg of OVA in PBS on days 7-10. Mice were sacrificed via CO2 exposure on day 12 for analysis.
For in vivo intervention studies, mice (n=5) received an oral dose of 20 mg/kg of the compound of Example 9 suspended in cherry syrup (30 μl total volume) on days 6-11. Additional groups of mice (n=5) received 5 mg/kg of prednisone in cherry syrup as a positive control, or cherry syrup alone as a negative control. Following sacrifice on day 12, leukocytes were collected from the airways via bronchoalveolar lavage (BAL). For this procedure, a cannula was inserted into the trachea and two 1 ml washes of cold PBS were infused in and out of the airways. […]
BAL and lung tissue cells were treated with ammonium chloride lysis buffer to remove red blood cells. The remaining leukocytes were then counted and stained for FACS analysis with a combination of PE-Cy5-anti-mouse CD4 and FITC-anti-mouse CD62L to identify effector/memory CD4+ cells (CD4+/CD62L−). […]

The subject of a further experiment is C57BL/6 mice. As to the kind of experiment: Mouse carrageenan-induced paw edema model. Type of experiment: in vivo. The following applies: 10, 20, 40 mg/kg in cherry syrup; 5 hours after carrageenan. On the procedure:
Female C57BL/6 mice (n=5 per group) were administered prednisone (5 mg/kg) and the compound of Example 9 (10, 20, 40 mg/kg) in cherry syrup. 24 hours later, drugs and vehicle control (syrup) were administered again. 2 hours later, mice were anesthetized, paw thickness was measured with a caliper to obtain a baseline value, and 1% carrageenan was injected subcutaneously in the subplantar region of the right hind paw. Mice were sacrificed 5 hours later and paw edema was measured via caliper. Change in thickness was calculated by subtracting baseline value from post-carrageenan injection value. Statistical analysis was performed using a Student's T-test.

For another experiment, the system named is DBA/1 mice. The experiment can be described thus: Collagen antibody induced arthritis (CAIA) model. Type of experiment: in vivo, mouse. The following applies: for Mean clinical severity score / Reduction as compared with vehicle-treated mice: prednisone 5 mg/kg, Example 9 20 mg/kg oral. On the procedure:
On day 1, DBA/1 mice (Jackson Labs, Bar Harbor, Me.) received an intraperitoneal (i.p.) injection of 2 mg of monoclonal antibody cocktail specific for collagen (CII) (MD Biosciences, St. Paul, Minn.). Two days later (day 3), mice received an i.p. injection of 100 μg of lipopolysaccharide (LPS). Mean clinical severity of CAIA was determined using a macroscopic clinical severity scoring system every 2-3 days by three individuals until the end of the experiment (day 14 post antibody cocktail injection). The scoring criteria was performed as follows: 0: No signs of disease; 1: Mild redness and/or swelling of one digit; 2: Redness and/or swelling of 2 digits; 3: Redness and/or swelling of more than 2 digits; 4: Redness and swelling of entire paw.
For intervention studies, mice (n=10) received an oral dose of 20 mg/kg of the compound of Example 9 suspended in cherry syrup (30 μl total volume) on day 0 through day 14. Additional groups of mice (n=10) received 5 mg/kg of prednisone in cherry syrup as a positive control, or cherry syrup alone as a negative control. On day 14, animals were sacrificed via CO2 exposure. Statistical analysis was performed using a two-way ANOVA followed by a Bonferroni post-hoc test.

Where [1] appears, read: 20 and 40 mg/kg/day for 3 months, vs untreated and prednisolone treated.

As to `C[C@]12CCC(=O)C=C1CCC1C2=CC[C@@]2(C)C1CC[C@]2(O)C(=O)CO` (stereo partly drawn) [Example 1, (10S,13S,17R)-17-hydroxy-17-(2-hydroxyacetyl)-10,13-dimethyl-6,7,8,10,12,13,14,15,16,17-decahydro-1H-cyclopenta[a]phenanthren-3(2H)-one], the “Histology (H&E) of gastrocnemius muscle” value with mdx mice (setting [1]) is “significant decrease in inflammation, degeneration, and increase in regenerating muscle fibers”.

For `C[C@@H]1CC2C3CCC4=CC(=O)C=C[C@]4(C)C3=CC[C@]2(C)[C@@]1(O)C(=O)CO` (stereo partly drawn) [Example 9, (10S,13S,16R,17R)-17-hydroxy-17-(2-hydroxyacetyl)-10,13,16-trimethyl-6,7,8,10,12,13,14,15,16,17-decahydro-3H-cyclopenta[a]phenanthren-3-one], the “Parameters of acute allergic lung inflammation (leukocyte infiltration, mucus production)” value in the experiment on mice is listed as “effective at improving parameters of acute allergic lung inflammation”. Further, in the experiment on C57BL/6 mice, the Carrageenan-induced paw edema entry is given as “effective at reducing mouse paw edema induced by carrageenan”. Moreover, the “Collagen antibody induced arthritis” value in the experiment with DBA/1 mice (20 mg/kg oral, day 0 through day 14) is on record as “effective at reducing collagen antibody induced arthritis”. Besides, the “Mean clinical severity score” value was found to be 4.5 ± 0.95 in the experiment with DBA/1 mice (Day 7), 5.0 ± 0.77 with DBA/1 mice (Day 9), 5.6 ± 0.82 in the experiment on DBA/1 mice (Day 11) and 3.1 ± 0.69 with DBA/1 mice (Day 14). In addition, the “Reduction as compared with vehicle-treated mice” value in the experiment with DBA/1 mice (Day 7) is on record as 43.8%; in the experiment with DBA/1 mice (Day 9) it was 35.5%; in the experiment on DBA/1 mice (Day 11) it was 41.3%; in the experiment with DBA/1 mice (Day 14), 50%.

As to `C[C@]12C=CC(=O)C=C1CCC1C2=CC[C@@]2(C)C1CC[C@]2(O)C(=O)CO` (stereo partly drawn) [Example 2, (10S,13S,17R)-17-hydroxy-17-(2-hydroxyacetyl)-10,13-dimethyl-6,7,8,10,12,13,14,15,16,17-decahydro-3H-cyclopenta[a]phenanthren-3-one], the “Histology (H&E) of gastrocnemius muscle” value in the experiment with mdx mice (setting [1]) is “significant decrease in inflammation, degeneration, and increase in regenerating muscle fibers”.

Turning to `C[C@]12C=CC(=O)C=C1CC[C@@H]1[C@@H]2[C@@H](O)C[C@@]2(C)[C@H]1CC[C@]2(O)C(=O)CO` [Prednisolone], the “Body weight vs untreated mice” value in the experiment with mdx mice (5 mg/kg/day per oral in feed, 33.8 weeks age) is “significantly lower body weight”. The “Histology (H&E) of gastrocnemius muscle” value with mdx mice (continuous prednisolone 5 mg/kg/day) was “appeared to increase degeneration and decrease in regeneration of dystrophic skeletal muscle”. Also, in the experiment with mdx mice (prednisolone 5 mg/kg/day), the “EDL specific force vs untreated” value is given as “no statistically significant (P<0.05) difference in specific force”.

Take `C[C@]12C=CC(=O)C=C1CC[C@@H]1[C@@H]2C(=O)C[C@@]2(C)[C@H]1CC[C@]2(O)C(=O)CO` [Prednisone, reference compound]: the “Mean clinical severity score” value in the experiment on DBA/1 mice (Day 7) turned out to be 2.4 ± 0.68; in the experiment on DBA/1 mice (Day 9), 1.5 ± 0.27; in the experiment with DBA/1 mice (Day 11), 2.9 ± 0.39; with DBA/1 mice (Day 14), 0.7 ± 0.3. In addition, the “Reduction as compared with vehicle-treated mice” value in the experiment with DBA/1 mice (Day 7) turned out to be 69.8%; in the experiment with DBA/1 mice (Day 9) it was 69.8%; in the experiment on DBA/1 mice (Day 11), 69.1%; in the experiment on DBA/1 mice (Day 14), 88.7%.
